Read-outs that look alike come from different tables or passages of the source.
Legend:
SRD5A = biological target: T1, SRD5A (Homo sapiens, UniProt P18405); experiment: Conversion of [3H]-AD to 5α-reduced androgens in LAPC4 cells; format: cell-based
T1 construct: endogenous in cells; host or cells: LAPC4
T1 sequence (P18405 1-259): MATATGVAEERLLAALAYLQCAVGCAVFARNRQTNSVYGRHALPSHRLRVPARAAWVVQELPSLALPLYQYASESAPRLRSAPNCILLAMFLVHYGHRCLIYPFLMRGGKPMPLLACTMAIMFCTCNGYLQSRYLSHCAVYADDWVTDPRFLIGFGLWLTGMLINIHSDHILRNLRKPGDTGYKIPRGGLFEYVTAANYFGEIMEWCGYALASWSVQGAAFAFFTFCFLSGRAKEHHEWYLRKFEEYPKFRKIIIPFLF
Method: (§1) Cell Line Metabolism: Cells were seeded and incubated in 12-well plates with 0.2 million cells/well for ˜24 h and then incubated with a mixture of radioactive ([^3H]-labeled) and non-radioactive androgens (final concentration, 100 nM; ˜1,000,000 cpm/well; PerkinElmer, Waltham, Mass.) at 37° C. Aliquots of medium were collected at the indicated times. Collected medium was treated with 1,000 units of β-glucuronidase (Helix pomatia; Sigma-Aldrich) at 65° C. for 2 h, extracted with 860 μL ethyl acetate:isooctane (1:1), and concentrated under nitrogen gas. Xenograft Metabolism: 10^7 LNCaP or VCaP cells were injected subcutaneously with Matrigel into surgically orchiectomized NSG mice that were implanted with 5 mg 90-day sustained-release DHEA pellets (Innovative Research of American, Sarasota, Fla.). Xenografts were harvested when they reached 1000 mm^3, minced, and cultured in DMEM with 10% FBS at 37° C. with mixture of radioactive ([^3H]-labeled) and non-radioactive androgens, or Abi, when they reached 1000 mm^3. Each xenograft was analyzed in triplicate in at least three independent experiments. Aliquots of medium were collected at the indicated times. Collected medium was treated with 1,000 units of β-glucuronidase at 65° C. for 2 h, extracted with 860 μL ethyl acetate:isooctane (1:1), and concentrated under nitrogen gas.
(§2) Dried samples were reconstituted in 50% methanol and injected into the HPLC. Steroids and drug metabolites were separated on Kinetex 100×2.1 mm, 2.6 μm particle size C18 reverse-phase column (Phenomenex, Torrance, Calif.) using a methanol/water gradient at 30° C. […] Alternatively, dried samples were applied to plastic-backed silica gel plates and separated by thin-layer chromatography (TLC) using a mobile phase of 3:1 chloroform:ethyl acetate, followed by exposure of the plates to a phosphorimager screen and quantitated with a Storm model 860 phosphorimager (Applied Biosystems, Foster City, Calif.). […] Results are shown as mean±SD.
Collected medium was treated with β-glucuronidase (Helix pomatia; Sigma-Aldrich), extracted with ethyl acetate:isooctane (1:1), and concentrated under nitrogen gas as described. Li et al., 523, 347-351 (2015).
Dried samples were reconstituted in 50% methanol and separated on Kinetex 100×2.1 mm, 2.6 μm particle size C18 reverse-phase column (Phenomenex, Torrance, Calif.) using a methanol/water gradient at 30° C. […] Results are shown as mean±SD.

wild-type AR (LAPC4) = biological target: T2, wild-type AR (LAPC4) (Homo sapiens, UniProt P10275); experiment: AR competition assay with [3H]-R1881 in LAPC4 cells; format: binding; details: for affinity for wild-type AR: [3H]-R1881, 30 min
T2 construct: endogenous in cells; host or cells: LAPC4
T2 sequence (P10275 1-920): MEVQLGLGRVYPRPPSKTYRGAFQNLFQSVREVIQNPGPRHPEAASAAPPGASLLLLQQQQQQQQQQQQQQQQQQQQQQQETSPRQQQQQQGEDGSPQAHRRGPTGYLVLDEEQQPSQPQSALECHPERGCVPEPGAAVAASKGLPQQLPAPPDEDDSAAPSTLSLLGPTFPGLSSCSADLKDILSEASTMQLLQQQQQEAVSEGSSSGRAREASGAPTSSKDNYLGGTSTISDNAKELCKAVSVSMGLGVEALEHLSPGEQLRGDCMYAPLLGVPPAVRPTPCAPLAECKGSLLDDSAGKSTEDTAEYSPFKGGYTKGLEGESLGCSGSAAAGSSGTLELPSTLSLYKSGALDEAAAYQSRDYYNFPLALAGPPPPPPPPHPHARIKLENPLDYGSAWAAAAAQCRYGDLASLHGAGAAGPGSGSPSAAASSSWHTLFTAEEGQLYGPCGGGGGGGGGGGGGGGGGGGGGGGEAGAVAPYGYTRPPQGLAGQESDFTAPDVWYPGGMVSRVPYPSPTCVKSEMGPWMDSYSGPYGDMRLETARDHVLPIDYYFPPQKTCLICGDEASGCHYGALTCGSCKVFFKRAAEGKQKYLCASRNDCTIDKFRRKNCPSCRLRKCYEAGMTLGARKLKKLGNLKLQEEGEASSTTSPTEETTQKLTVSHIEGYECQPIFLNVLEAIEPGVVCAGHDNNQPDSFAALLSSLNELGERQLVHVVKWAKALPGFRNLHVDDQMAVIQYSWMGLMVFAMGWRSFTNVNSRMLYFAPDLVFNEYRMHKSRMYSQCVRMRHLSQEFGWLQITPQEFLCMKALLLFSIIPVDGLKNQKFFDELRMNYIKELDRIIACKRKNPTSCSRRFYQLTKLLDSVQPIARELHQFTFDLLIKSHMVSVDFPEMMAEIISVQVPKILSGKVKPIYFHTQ
Method: Cells were cultured in serum-free medium for 48 h and then treated with [^3H]-R1881 and the indicated concentrations of D4A, Abi, enzalutamide, R1881 or bicalutamide for 30 min. Cells were washed with 1×PBS 4 times and 0.9% NaCl solution twice before lysis with RIPA buffer.
Cells were starved with phenol red-free and serum free-medium for at least 48 h and then treated with [^3H]-R1881 and the indicated concentrations of drugs for 30 min. Cells were washed thoroughly with PBS and then lysed with […].

3βHSD = biological target: T3, 3βHSD (Homo sapiens, UniProt P14060); experiment: Conversion of [3H]-DHEA by 3βHSD to AD in prostate cancer cells (HPLC/TLC); format: cell-based; details: for 3βHSD inhibition activity relative to D4A: LNCaP, [3H]-DHEA to AD, 48 hours
T3 construct: endogenous in cells; host or cells: LNCaP, VCaP
T3 sequence (P14060 2-373 limits assumed): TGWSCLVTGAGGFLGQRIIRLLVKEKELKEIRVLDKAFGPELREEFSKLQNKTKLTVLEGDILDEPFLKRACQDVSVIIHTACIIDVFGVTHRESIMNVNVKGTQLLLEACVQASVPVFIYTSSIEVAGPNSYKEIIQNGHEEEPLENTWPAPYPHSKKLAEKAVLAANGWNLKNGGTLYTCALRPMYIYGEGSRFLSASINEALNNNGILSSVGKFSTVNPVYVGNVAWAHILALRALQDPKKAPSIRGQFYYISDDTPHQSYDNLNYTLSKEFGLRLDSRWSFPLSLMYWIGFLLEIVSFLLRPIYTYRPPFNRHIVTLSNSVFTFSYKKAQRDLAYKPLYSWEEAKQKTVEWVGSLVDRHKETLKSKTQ
Method: as §1
as §2, with “mean±SD. […]” for “mean±SD.”

Row | Compound | SRD5A inhibition activity relative to D4A (SRD5A; LAPC4, [3H]-AD to 5α-dione, 24 hours) | affinity for wild-type AR (wild-type AR (LAPC4)) | 3βHSD inhibition activity relative to D4A (3βHSD) | block of conversion from AD to 5α-androstanedione and other 5α-reduced androgens (SRD5A; 10 μM, LAPC4 cells) | IC50 (wild-type AR (LAPC4); competition with 0.1 nM [3H]-R1881, read-out: IC50, affinity for wild-type AR) [nM] | potency relative to Abi at blocking conversion of [3H]-DHEA by 3βHSD to AD (3βHSD; LNCaP and VCaP cells, TLC and HPLC) | SRD5A inhibition activity relative to D4A (SRD5A)
1 | C[C@]12CC[C@@H](O)C[C@@H]1CC[C@@H]1[C@@H]2CC[C@]2(C)C(c3cccnc3)=CC[C@@H]12 [Compound 3α-OH-5α-Abi, 17-(3-pyridyl)-5α-androsta-16-ene-3α-ol] | lose SRD5A inhibition activity | lower | attenuation or loss | – | – | – | –
2 | C[C@]12CCC(=O)C=C1CC[C@@H]1[C@@H]2CC[C@]2(C)C(c3cccnc3)=CC[C@@H]12 [Compound D4A, 17-(3-Pyridyl)androsta-4,16-dien-3-one] | – | – | – | nearly completely blocks | 7.9 | approximately 10 fold | –
3 | C[C@]12CCC(=O)C[C@@H]1CC[C@@H]1[C@@H]2CC[C@]2(C)C(c3cccnc3)=CC[C@@H]12 [Compound 5α-Abi, 17-(3-pyridyl)-5α-androsta-16-ene-3-one] | – | comparable to that of D4A | attenuation or loss | – | – | – | lose SRD5A inhibition activity
